In patent US9365532B1, “Synthesis, composition and use of novel therapeutic and cosmetic Schiff base products formed by reaction of a carbonyl containing moeity with a transimination nucleophilic catalyst and the use of transimination nucleophilic catalysts to increase the rate at which carbonyl containing therapeutic and …” (Nanometics, LLC., priority 2011, dated 2016):
Entries after “also recorded” stand apart in the source; their conditions may differ.

Experiments:
human skin = experiment: Melanoidin formation in vivo on human skin; conditions: low concentrations of transimination nucleophilic catalyst
Description: The application areas were allowed to dry for 5 min and were monitored for 14 days, with photographs taken throughout. The subjects were asked not to bathe for the first 24 h. […] Significant differences in the appearance of the application areas were noticeable during the study, and no adverse reactions of any kind were observed. […] The preliminary results of these experiments are promising, and we plan to expand the study to incorporate a larger, statistically significant panel during phase II SBIR studies.

HbA = target: T1, HbA (Homo sapiens, UniProt P69905); experiment: 5HMF/HbA Schiff base adduct formation with purified HbA, cation-exchange HPLC; format: binding; conditions: for percent Hb adduct (5HMF/HbA): 30 min at room temperature, HbA 1 mg/ml PBS 7.4
T1 construct: purified HbA (1 mg/ml), from an anonymous human donor; from tissue; host or cells: blood of an anonymous human donor (purified HbA)
T1 sequence (P69905 2-142 limits assumed): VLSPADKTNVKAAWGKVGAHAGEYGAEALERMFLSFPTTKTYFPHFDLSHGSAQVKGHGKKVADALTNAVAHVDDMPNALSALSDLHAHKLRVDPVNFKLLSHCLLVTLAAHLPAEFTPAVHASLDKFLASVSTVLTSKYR
T1 sequence (P68871 2-147 partner limits assumed): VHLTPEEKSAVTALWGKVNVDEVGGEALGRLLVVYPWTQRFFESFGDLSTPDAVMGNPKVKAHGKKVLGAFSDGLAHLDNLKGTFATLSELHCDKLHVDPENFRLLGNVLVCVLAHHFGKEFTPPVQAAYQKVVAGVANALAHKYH
Description: The isolated imine of Example 1, formed by reacting p-aminobenzoic acid and 5-hydroxymethyl furfural, reacts with hemoglobin at faster rates than 5HMF. The therapeutic imine was synthesized according to Example 1. To a solution of purified HbA (1 mg/ml), from an anonymous human donor, in PBS 7.4 was added equivalent amounts of the therapeutic imine of AIC (1 mM), or 5HMF (1 mM). The HbA solutions show a new peak (˜7.1 min) on cation-exchange HPLC (Table 2) that elutes prior to the unmodified HbA peak (˜8.2 min). The new peak represents the […] formed between 5HMF and HbA and can be quantified by integration of the representative peaks. […] The initial rate of Schiff base adduct formation between the therapeutic imine and HbA is nearly 10 times faster than the rate of formation between 5HMF and HbA, as determined by cation-exchange HPLC at room temperature.

HbS [1] = target: T2, HbS (Homo sapiens, UniProt P69905); experiment: Ex vivo 5HMF/HbS adduct formation in whole blood, AIC vs 5HMF; format: cell-based, BERKγM mouse; conditions: for 5HMF/HbS adduct formed: 30 min at 37° C.
T2 construct: To aliquots of whole blood (100 μL), from the BERKγM mouse; from tissue; host or cells: red cells in whole blood of BERKγM / BERK M transgenic sickle mice (ex vivo incubation, or in vivo after i.v. injection)
Target sequence in this assay (P69905 2-142 limits assumed): as the sequence (P69905 2-142 limits assumed) above

[2] = Stability to air, light and moisture (controlled humidity chamber); format: physicochemical; conditions: 500 mg, light, 22° C., 2 wks
Description: The commercial-scale production, distribution and stability of 5HMF, a hygroscopic off-white solid, may be costly as the compound is highly susceptible to degradation upon exposure to air, light and moisture (21). […] To quantify the differences in stability, 500 mg of AIC or 5HMF were placed in a controlled humidity chamber and exposed to light at 22° C. for a period of 2 wks.

[3] = mouse, in vivo; cited from earlier work
hemoglobin = hemoglobin (Homo sapiens, UniProt P69905); experiment: Oxygen equilibrium curves of hemoglobin solutions (Hemox Analyzer); format: biochemical; conditions: for n50 (hill coefficient) / ΔP50 (%) / P50: no PABA
Sequence of hemoglobin (P69905 2-142 limits assumed): as above
Sequence of hemoglobin (P68871 2-147 partner limits assumed): as the sequence (P68871 2-147 partner limits assumed) above
Description: The oxygen equilibrium curves (OEC) of hemoglobin (1 mg/ml) in phosphate buffer saline pH 7.4 containing 100 mM, 10 mM or 1 mM of the sodium salt of p-aminobenzoate (Sigma) were determined with a Hemox Analyzer (TCS Scientific Corp.). Hemoglobin solutions were incubated at 37° C. for 1 h, in the presence (+) or absence (−) of each compound, as specified in Table 1.

sickle cells = conditions: in vitro, high concentrations of 5HMF; cited from earlier work
HbS [4] = target: T2, HbS; experiment: Ex vivo 5HMF/HbS adduct formation in whole blood, PABA/5HMF mixtures; format: cell-based, BERKγM transgenic mouse; conditions: for 5HMF/HbS adduct formed: whole blood
Description: Studies were initiated to explore the impact of mixing equimolar concentrations of PABA and 5HMF on the rate of 5HMF/HbS adduct formation in whole blood from a BERKγM transgenic mouse. To aliquots of whole blood (100 μL) was added either 5HMF (2 mM or 5 mM), the sodium salt of PABA (2 mM or 5 mM), or equimolar concentrations of PABA/5HMF (2 mM or 5 mM). […] The rate enhancements are not optimized in these experiments, and additional experiments to account for the differences in rates of transport across the RBC membrane will be performed during Phase II SBIR studies.
Target sequence in this assay (P69905 2-142): as the sequence (P69905 2-142 limits assumed) above

[5] = Behaviour and toxicity after intravenous injection
HbS [6] = target: T2, HbS; experiment: In vivo 5HMF/HbS adduct formation after intravenous injection; design: species or system BERK M mice; conditions: 200 mg/kg each
Description: BERK M mice were injected (intravenous) with solutions containing either 5HMF (200 mg/kg) or 5HMF (200 mg/kg) and the sodium salt of PABA (200 mg/kg). […] To assess of 5HMF/HbS adduct formation, aliquots of blood were taken at 10 and 30 min, and immediately washed, lysed and subjected to HPLC as previously described.
Target sequence in this assay (P69905 2-142): as the sequence (P69905 2-142 limits assumed) above

[7] = humans; cited from earlier work
[8] = Melanoidin formation in vitro in glycine/DHA solutions; conditions: glycine (6%) and DHA (6%), 32° C.
Description: Solutions of glycine (6%) and DHA (6%) in 100 mM NH4OAc buffer pH 5.5 were incubated in the presence (+) and absence (−) of the sodium salt of PABA (1%) at 32° C.

T-cell surface amines = experiment: Competitive covalent ligation assay, Tucaresol/T-cell adduct formation (flow cytometry); format: cell-based, Balb/c male mice; conditions: 500 μM Tucaresol and/or 1 mM PABA, 30 min, 37° C.
Source text: The central hypothesis of our approach involves utilizing PABA to increase the rate of Schiff base formation between Tucaresol and T-cells in order to minimize the concentration of Tucaresol required for efficacy. We used an established competitive covalent ligation assay (2) to examine the influence of PABA on the rate and degree of Schiff base-adduct formation between Tucaresol and T-cells isolated from the spleens of Balb/c male mice. In this assay, the degree of Tucaresol/T-cell adduct formation is inversely proportional to the mean fluorescence intensity (as visualized by ligation with S-NHS-biotin and FITC-avidin). T-cells were incubated for 30 min with 500 μM Tucaresol only (blue column, FIG. 5), 1 mM PABA only (orange column, FIG. 5) or a mixture of 500 μM Tucaresol and 1 mM PABA (red column, FIG. 5) at 37° C. After 30 min, the reducing agent NaCNBH3 was added to selectively reduce Schiff base adducts (chemically trapping the Tucaresol/T-cell adduct). Washed cells were exposed for 1 h to 12.5 μM S-NHS-biotin (Pierce Rockford, Ill.) to ligate unreacted free surface amino groups. After washing, cells were exposed to excess fluorescent avidin (FITC-avidin) (Pierce), fixed and visualized using flow cytometry.

HIV-positive patients = conditions: cited from earlier work

## CCC=CCCOC(=O)c1ccccc1N [3-hexen-1-yl anthranilate]
Human skin
  rate at which melanoidin formation occurs on human skin: significantly increase the rate

## O=C(O)c1ccc(/N=C/c2ccc(CO)o2)cc1 [AIC, 4-((5-(hydroxymethyl)furan-2-yl)methyleneamino)benzoic acid]
HbA; 1 mM AIC or 1 mM 5HMF
  rate of 5HMF/HbA adduct formation vs 5HMF (in words): significantly enhanced rates
HbA; 1 mM
  percent Hb adduct (5HMF/HbA): ~32%
HbA; 1 mM, room temperature
  initial rate of Schiff base adduct formation with HbA relative to 5HMF: ~10 times
HbS [1]; 5 mM, whole blood
  5HMF/HbS adduct formed: 50%
HbS [1]; 5 mM, whole blood, initial rate measured after 10 min
  rate of 5HMF/HbS adduct formation vs 5HMF (in words): significantly faster; also recorded: significantly enhanced rates
HbS [1]; whole blood, 5 mM
  erythrocyte membrane permeation: permeates the erythrocyte membrane
[2]
  chemical change by 1HNMR spectra and HPLC chromatogram on storage: no changes
  color change on storage: did not exhibit a noticeable color change

## O=Cc1ccc(CO)o1 [Example 5HMF, 5-hydroxymethyl-2-furfural]
HbA; 1 mM
  percent Hb adduct (5HMF/HbA): 6%
HbS [1]; 5 mM, whole blood
  5HMF/HbS adduct formed: 27%
[3]
  survival time of mice exposed to severe hypoxia: prolonged the survival time
hemoglobin; Exp A: 1 mM 5HMF, 1 h 37° C.
  n50 (hill coefficient): 2.50
hemoglobin; Exp A: 1 mM 5HMF, 1 h 37° C., vs control P50
  ΔP50 (%): 7.53%
hemoglobin; Exp A: 1 mM 5HMF, Hb 1 mg/ml PBS pH 7.4, 1 h 37° C.
  P50: 14.00 mmHg
hemoglobin; Exp E: 3 mM 5HMF, 1 h 37° C.
  P50: 8.21 mmHg
  n50 (hill coefficient): 1.73
  ΔP50 (%): 45.78%
hemoglobin; Exp F: 5 mM 5HMF, 1 h 37° C.
  P50: 5.72 mmHg
  n50 (hill coefficient): 1.91
  ΔP50 (%): 62.22%
Sickle cells
  hypoxia-induced formation of sickle cells: largely inhibited
HbS [4]; 2 mM (equimolar for mixture), 37° C.
  5HMF/HbS adduct formed: 23%
HbS [4]; 5 mM (equimolar for mixture), 30 minutes at 37° C.
  5HMF/HbS adduct formed: 40%
[2]
  chemical change by 1HNMR spectra and HPLC chromatogram on storage: After 3 days, the 5HMF sample has undergone significant chemical changes
  color change on storage: becomes yellow after 24 h
[5]; 200 mg/kg, intravenous
  behavior of mice after injection: became lethargic and exhibited noticeable changes in behavior
[5]; higher concentrations of 5HMF (300-500 mg/kg)
  convulsion and death: caused mice to convulse and die
HbS [6]; blood taken at 10 min
  5HMF/HbS adduct: 5.1%
HbS [6]; blood taken at 30 min
  5HMF/HbS adduct: 4.1%

## CC1CCC(C(C)C)C(OC(=O)c2ccccc2N)C1 (stereo not drawn) [Menthyl-o-aminobenzoate]
Human skin
  rate at which melanoidin formation occurs on human skin: significantly increase the rate

## Nc1ccccc1C(=O)O [OABA, o-aminobenzoic acid]
Human skin
  rate at which melanoidin formation occurs on human skin: significantly increase the rate

## Nc1ccc(C(=O)O)cc1 [PABA, p-aminobenzoic acid]
[7]
  daily doses with no reported side effects: below 12 grams
HbA; PABA only control
  new adduct peak by HPLC: did not show a new peak
HbS [1]; PABA only negative control
  new adduct peak by HPLC: did not show a new peak
[8]; 100 mM NH4OAc pH 5.5, 1% PABA sodium salt, vs no PABA
  rate of darkening of solutions: darkened at faster rates
[8]; 1% PABA
  change of UV-Vis spectrum: changed more rapidly
hemoglobin; 100 mM, 10 mM or 1 mM PABA, no 5HMF
  shift of OEC / change in P50 value vs Hb control: did not shift the OEC or cause a change in the P50 value
HbS [4]; 2 mM or 5 mM 5HMF with equimolar PABA, FIG. 2
  amount of 5HMF/HbS adduct formed in the presence of equimolar PABA (in words): significantly increased
HbS [4]; PABA only control (2 mM or 5 mM)
  adduct formation: did not result in any adduct formation
Human skin
  rate at which melanoidin formation occurs on human skin: significantly increase the rate
T-cell surface amines
  mean fluorescence intensity of T-cells (inversely proportional to Tucaresol/T-cell adduct formation): did not exhibit a change in mean fluorescent intensity

## O=Cc1c(O)cccc1OCc1ccc(C(=O)O)cc1 [Tucaresol, 4(2-formyl-3-hydroxy-phenoxymethyl) benzoic acid]
HIV-positive patients; HIV-positive patients
  CD4+ counts: increase in CD4+ counts
  HIV viraemia: unaffected
HIV-positive patients; after the first dose
  Tucaresol-related serious adverse events (patients): 2/21

## CCCCOC(=O)c1ccccc1N [butyl anthranilate]
Human skin
  rate at which melanoidin formation occurs on human skin: significantly increase the rate

## CCOC(=O)c1ccccc1N [ethyl anthranilate]
Human skin
  rate at which melanoidin formation occurs on human skin: significantly increase the rate

## COC(=O)c1ccccc1N [methyl anthranilate]
Human skin
  rate at which melanoidin formation occurs on human skin: significantly increase the rate
